# Laboratory results: patent EP1803452A1, “ESTER DERIVATIVE AND PHARMACEUTICAL USE THEREOF” (Japan Tobacco, Inc., priority 2004, dated 2006)
# Assays:
# [1] = Metabolic stability test in liver S9; type: in vitro ADME; conditions: pH 7.4, human liver S9 2 mg protein/mL, LC/MS; for remaining at 10 min: unchanged form after 10 minutes at 37°C, read-out: Remaining rate in human liver S9 (%/10min); for remaining at 1 h: unchanged form after 60 minutes at 37°C, read-out: Remaining rate in human liver S9 (%/60min)
# Method: Human liver S9 (final concentration: 2 mg protein/mL), was suspended in 100 mM potassium phosphate buffer (pH 7.4, containing β-nicotinamide adenine dinucleotide phosphate: 1.3 mM, D-glucose-6- phosphate: 3.3 mM, magnesium chloride: 3.3 mM, glucose-6-phosphate dehydrogenase:0.4 U/mL). The suspension was mixed with a solution of a sample dissolved in DMSO. The solution was incubated at 37°C for 0, 10 and 60 minutes, and an acetonitrile containing formic acid (final concentration: 0.1%) was added thereto. The solutions were centrifuged, and the concentration of the sample (unchanged form) in the supernatant was determined by high performance liquid chromatography/mass spectrometry (LC/MS). Based on the data obtained, remaining rate (%) was calculated according to the following equation. Remaining rate(%) = amount of sample 0,10, or 60 minutes after [formula] incubation/amount of sample at zero time after incubation × 100 [formula]
# (§1) With respect to the compounds obtained in Working Examples according to the present invention (Compounds 1-1 to 1-115, 2-1, 3-1, 3-2, and 4-1 to 4-4), the results of the remaining rate in human liver S9 and plasma are shown in Tables 28 to 32.
# [2] = Metabolic stability test in plasma; type: in vitro ADME, human; conditions: LC/MS; for remaining at 10 min: unchanged form after 10 minutes at 37°C in human plasma, read-out: Remaining rate in human plasma (%/10min); for remaining at 1 h: unchanged form after 60 minutes at 37°C in human plasma, read-out: Remaining rate in human plasma (%/60min)
# Method: A sample dissolved in DMSO was added to plasma of human or animal species (mouse and hamster). The solutions were incubated at 37°C for 0, 10 and 60 minutes, and acetonitrile containing formic acid (final concentration: 0.1%) was added thereto. The solutions were centrifuged, and the concentration of the sample (unchanged form) in the supernatant was determined by high performance liquid chromatography/mass spectrometry (LC/MS). Based on the data obtained, the remaining rate (%) was calculated according to the following equation. Remaining rate(%) = amount of sample 0,10, or 60 minutes after incubation/amount of sample at zero time after incubation × 100 [formula]
# as §1
# [3] = Stability test in buffer (pH 7.4); type: physicochemical; conditions: phosphate buffer/acetonitrile 7:3, 100 mM potassium phosphate buffer (pH 7.4) and acetonitrile 7:3 (v/v), LC/MS; for remaining at 10 min: 10 minutes at 37°C, read-out: Buf. remaining rate (%/10min); for remaining at 1 h: 60 minutes at 37°C, read-out: Buf. remaining rate (%/60min)
# Method: In the tables, Buf. remaining rate was determined by stability test in buffer (pH 7.4) as described below. A sample dissolved in DMSO was mixed with a mixed solution of 100 mM potassium phosphate buffer and acetonitrile in the ratio of 7:3 (v/v). The mixture was incubated at 37°C for 0, 10, and 60 minutes, and acetonitrile containing formic acid (final concentration: 0.1%) was added thereto. The solution was centrifuged, and the concentration of the sample (unchanged form) in the supernatant was determined by high performance liquid chromatography/mass spectrometry (LC/MS). Based on the data obtained, Buf. remaining rate (%) was calculated according to the following equation. Buf.remaining rate(%) = amount of sample 0,10, or 60 minutes after incubation/amount of sample at zero time after incubation × 100 [formula]
Compound,remaining at 10 min [1] [%],remaining at 1 h [1] [%],remaining at 10 min [2] [%],remaining at 1 h [2] [%],remaining at 10 min [3] [%],remaining at 1 h [3] [%]
"COc1cccc(COC(=O)c2ccc(OC(=O)CCCc3ccc(NC(=O)c4ccccc4-c4ccc(C(F)(F)F)cc4)c(C(=O)N(C)C)c3)cc2)c1 [Compound 1-97, 4-[4-(3-dimethylcarbamoyl-4-{(4'-trifluoromethylbiphenyl-2-carbonyl)amino}phenyl)butyryloxy]benzoic acid 3-methoxybenzyl ester]",13,7,49,0,100,104
"CN(C)C(=O)c1cc(CC(=O)Oc2ccccc2)ccc1NC(=O)c1ccccc1-c1ccc(C(F)(F)F)cc1 [Compound 1-3, {3-dimethylcarbamoyl-4-[(4'-trifluoromethylbiphenyl-2-carbonyl)amino]phenyl}acetic acid phenyl ester]",0,0,58,5,101,98
"CN(C)C(=O)c1cc(CCCC(=O)Oc2ccc(C(=O)OCc3ccc(Cl)cc3)cc2)ccc1NC(=O)c1ccccc1-c1ccc(C(F)(F)F)cc1 [Compound 1-79, 4-[4-(3-dimethylcarbamoyl-4-{(4'-trifluoromethylbiphenyl-2-carbonyl)amino}phenyl)butyryloxy]benzoic acid 4-chlorobenzyl ester]",20,4,0,0,96,95
"CN(C)C(=O)Cn1nnc(-c2ccc(OC(=O)CCCc3ccc(NC(=O)c4ccccc4-c4ccc(C(F)(F)F)cc4)c(C(=O)N(C)C)c3)cc2)n1 [Compound 1-105, 4-(3-dimethylcarbamoyl-4-{(4'-trifluoromethylbiphenyl-2-carbonyl)amino}phenyl)butyric acid 4-(2-dimethylcarbamoylmethyl-2H-tetrazol-5-yl)phenyl ester]",3,0,84,43,101,101
"COC(=O)c1ccc(OC(=O)C2CCN(c3ccc(NC(=O)c4ccccc4-c4ccc(C(F)(F)F)cc4)c(C(=O)N(C)C)c3)CC2)c(F)c1 [Compound 3-2, 1-{3-dimethylcarbamoyl-4-[(4'-trifluoromethylbiphenyl-2-carbonyl)amino]phenyl}piperidine-4-carboxylic acid 2-fluoro-4-methoxycarbonylphenyl ester]",2,0,24,0,94,97
"CN(C)C(=O)c1cc(CC(=O)Oc2ccc(F)cc2)ccc1NC(=O)c1ccccc1-c1ccc(C(F)(F)F)cc1 [Compound 1-4, {3-dimethylcarbamoyl-4-[(4'-trifluoromethylbiphenyl-2-carbonyl)amino]phenyl}acetic acid 4-fluorophenyl ester]",0,0,57,5,99,95

# The remaining lines, values ahead:
remaining at 10 min [1] [%],remaining at 1 h [1] [%],remaining at 10 min [2] [%],remaining at 1 h [2] [%],remaining at 10 min [3] [%],remaining at 1 h [3] [%],Compound
24,9,77,19,102,101,"COC(=O)c1cc(Cl)c(OC(=O)CCCc2ccc(NC(=O)c3ccc(C)nc3-c3ccc(C(F)(F)F)cc3)c(C(=O)N(C)C)c2)c(C(C)C)c1 [Compound 1-74, 3-chloro-4-[4-(3-dimethylcarbamoyl-4-{[6-methyl-2-(4-trifluoromethylphenyl)pyridine-3-carbonyl]amino}phenyl)butyryloxy]-5-isopropylbenzoic acid methyl ester]"
0,0,46,0,98,101,"CC(C)OC(=O)COC(=O)c1ccc(OC(=O)CCCc2ccc(NC(=O)c3ccccc3-c3ccc(C(F)(F)F)cc3)c(C(=O)N(C)C)c2)cc1 [Compound 1-102, 4-[4-(3-dimethylcarbamoyl-4-{(4'-trifluoromethylbiphenyl-2-carbonyl)amino}phenyl)butyryloxy]benzoic acid isopropoxycarbonylmethyl ester]"
11,3,77,18,101,103,"COC(=O)c1ccc(OC(=O)CCCc2ccc(NC(=O)c3ccccc3-c3ccc(C(F)(F)F)cc3)c(C(=O)N(C)C)c2)c(C(C)C)c1 [Compound 1-68, 4-[4-(3-dimethylcarbamoyl-4-{(4'-trifluoromethylbiphenyl-2-carbonyl)amino}phenyl)butyryloxy]-3-isopropylbenzoic acid methyl ester]"
37,11,0,0,99,99,"COc1cc(C(=O)OC(C)C)cc(Cl)c1OC(=O)CCCc1ccc(NC(=O)c2ccc(C)nc2-c2ccc(C(F)(F)F)cc2)c(C(=O)N(C)C)c1 [Compound 1-37, 3-chloro-4-[4-(3-dimethylcarbamoyl-4-{[6-methyl-2-(4-trifluoromethylphenyl)pyridine-3-carbonyl]amino}phenyl)butyryloxy]-5-methoxybenzoic acid isopropyl ester]"
14,0,0,0,96,97,"COC(=O)c1cc(OC)c(OC(=O)CCCc2ccc(NC(=O)c3ccc(C)nc3-c3ccc(C(F)(F)F)cc3)c(C(=O)N(C)C)c2)c(C(F)(F)F)c1 [Compound 1-47, 4-[4-(3-dimethylcarbamoyl-4-{[6-methyl-2-(4-trifluoromethylphenyl)pyridine-3-carbonyl]amino}phenyl)butyryloxy]-3-methoxy-5-trifluoromethylbenzoic acid methyl ester]"
0,0,0,0,98,102,"COC(=O)c1ccc(OC(=O)CCCc2ccc(NC(=O)c3ccccc3-c3ccc(C(F)(F)F)cc3)c(C(=O)N(C)C)c2)c(C(=O)OC)c1 [Compound 1-33, 4-(4-{3-dimethylcarbamoyl-4-[(4'-trifluoromethylbiphenyl-2-carbonyl)amino]phenyl}butyryloxy)isophthalic acid dimethyl ester]"
11,2,60,2,100,104,"CN(C)C(=O)c1cc(CCCC(=O)Oc2ccc(C(=O)OCc3cccc(Cl)c3)cc2)ccc1NC(=O)c1ccccc1-c1ccc(C(F)(F)F)cc1 [Compound 1-87, 4-[4-(3-dimethylcarbamoyl-4-{(4'-trifluoromethylbiphenyl-2-carbonyl)amino}phenyl)butyryloxy]benzoic acid 3-chlorobenzyl ester]"
14,3,2,0,104,108,"COc1cc(C(=O)OCCNC(C)=O)cc(Cl)c1OC(=O)CCCc1ccc(NC(=O)c2ccc(C)nc2-c2ccc(C(F)(F)F)cc2)c(C(=O)N(C)C)c1 [Compound 1-114, 3-chloro-4-[4-(3-dimethylcarbamoyl-4-{[6-methyl-2-(4-trifluoromethylphenyl)pyridine-3-carbonyl]amino}phenyl)butyryloxy]-5-methoxybenzoic acid 2-acetylaminoethyl ester]"
